Entries after “also recorded” stand apart in the source; their conditions may differ.
What was measured:
[1] = tested on: Seeds of tomato (‘Crimson Carmello’); assay: Germinating tomato seeds soaked 1 hour in MDHJ: percent germination, radicle length (Example 26); type: in vivo; settings: for Percent of Tomato Seeds Germinated, Day 5 / Percent of Tomato Seeds Germinated, Day 7: 1 hour soak of germinating seeds
Method: Seeds of tomato (‘Crimson Carmello’) were soaked in water for 24 hours. After 24 hours, seeds were transferred to a solution containing water only (untreated control or UTC), 0.05 mM MDHJ, or 0.5 mM MDHJ in water. There were 8-9 seeds per treatment. After soaking for 1 hour, the seeds were rinsed in water and placed between two layers of water-moistened paper towel in a clear plastic covered tray. The trays were placed at room temperature with normal daylight conditions and allowed to germinate. At day 5 and 7, the percent of germinated seeds was obtained. At days 5 and 7, radicle length was measured in tomato seedlings (no coleoptiles were showing yet). At Day 5 and 7, radicle length was measured in millimeters.

Sugar snap pea seeds = Sugar snap pea seeds treated with MDHJ soak solutions with wetting agent: seeds germinated (Example 3); type: in vivo
Method: Non-germinated seeds of the hybrid corn varietal “Early Sun Glow” were treated with MDHJ by soaking for 24 hours in 50 mL conical vessels in one of four treatment solutions. During the soak, the seeds spent 12 hours in typical lighting conditions and 12 hours in darkness. The four treatment solutions are set forth below in Table 5. In Table 5, COCO-WET® is a wetting agent sold by Spray-N-Grow, Inc. of Rockport, Tex. On Day 2, 4 2-inch pots were planted with three seeds each, for a total of 12 seeds per treatment. Germination of the potted seeds was measured at days 8 and 15. Sugar snap pea seeds were treated according to the procedure in Example 2. The number of seeds germinated were counted at days 8 and 15 after treatment.

plants [2] = settings: U.S. Patent Application Publication No. 2009/0082453; cited from earlier work
[3] = tested on: corn (‘Sugar Pearl’) seeds; assay: Germinating corn seeds (48 hours water soak) soaked 1 hour in MDHJ: germination at Day 6 (Example 28); type: in vivo; settings: for Percent of Seeds Germinated at Day 6, Corn: 1 hour soak after 48 hours in water
Method: (§1) Seeds of wheat (Triticum aestivum ‘Liquid Sunshine’), corn (‘Sugar Pearl’) and swiss chard (‘Peppermint Stick’) were soaked in water for 48 hours, immediately followed by a 1 hour soak in no MDHJ (untreated control, or UTC), 1.5 mM MDHJ or 7.5 mM MDHJ. Seeds were then rinsed and placed between sheets of moistened paper towel and surrounded by a saran wrap tent to keep the germinating environment moist. There were 13-25 seeds for each treatment of each plant. At Day 6, seed germination was measured for each plant.

[4] = tested on: swiss chard (‘Peppermint Stick’) seeds; assay: Germinating swiss chard seeds (48 hours water soak) soaked 1 hour in MDHJ: germination at Day 6 (Example 28); type: in vivo; settings: for Percent of Seeds Germinated at Day 6, Swiss Chard: 1 hour soak after 48 hours in water
Method: as §1

[5] = tested on: Seeds of corn (‘Sugar Pearl’); assay: Planted germinating corn seeds, soil sprayed with MDHJ: seedling emergence and plant height (Example 29); type: in vivo; settings: for Percent Seedling Emergence: 12.5 ml/pot sprayed on soil two days after planting, 21 days after planting, n=16
Method: Seeds of corn (‘Sugar Pearl’) were soaked in water for 48 hours and subsequently planted 1-inch deep in potting soil in 6-inch pots. Two days after planting, the soil was sprayed with 12.5 ml/pot of 0 mM (UTC), 0.75 mM or 7.5 mM MDHJ. There were 8 seeds planted per pot and two pots for each treatment (n=16). Germination was recorded 21 days after planting, and plant height measured 24 days after planting.

[6] = tested on: Seeds of wheat (Triticum aestivum ‘Liquid Sunshine’); assay: Germinating wheat seeds soaked 1 hour in MDHJ: percent germination, coleoptile length (Example 27); type: in vivo; settings: for Percent of Wheat Seeds Germinated at Day 7: 1 hour soak after 24 hours in water
Method: Seeds of wheat (Triticum aestivum ‘Liquid Sunshine’) were soaked in water for 24 hours. After 24 hours, seeds were transferred to a solution containing water only (untreated control or UTC), 0.05 mM MDHJ, 0.5 mM MDHJ, or 5.0 mM MDHJ in water. There were 16-20 seeds per treatment. After soaking for 1 hour, the seeds were rinsed in water and placed between two layers of water-moistened paper towel in a clear plastic covered tray. The trays were placed at room temperature with normal daylight conditions and allowed to germinate. At day 7, the percent of germinated seeds was obtained and coleoptile length was measured.

[7] = tested on: wheat (Triticum aestivum ‘Liquid Sunshine’) seeds; assay: Germinating wheat seeds (48 hours water soak) soaked 1 hour in MDHJ: germination at Day 6 (Example 28); type: in vivo; settings: for Percent of Seeds Germinated at Day 6, Wheat: 1 hour soak after 48 hours in water
Method: as §1

plants [8] = settings: U.S. Pat. Nos. 8,013,226 and 8,563,839; cited from earlier work
[9] = tested on: Seeds of Redina lettuce (Lechuga redina); assay: Redina lettuce seeds treated with MDHJ soak solutions with wetting agent (Example 4); type: in vivo
Method: Non-germinated seeds of the hybrid corn varietal “Early Sun Glow” were treated with MDHJ by soaking for 24 hours in 50 mL conical vessels in one of four treatment solutions. During the soak, the seeds spent 12 hours in typical lighting conditions and 12 hours in darkness. The four treatment solutions are set forth below in Table 5. In Table 5, COCO-WET® is a wetting agent sold by Spray-N-Grow, Inc. of Rockport, Tex.
Seeds of Redina lettuce (Lechuga redina) were treated with MDHJ according to the protocol of Example 2.

plants [10] = settings: U.S. Patent Application Publication No. 2009/0133166; cited from earlier work
[11] = tested on: non-germinated seeds and resulting plants; settings: U.S. Pat. No. 8,115,053 to Roberts et al.; treating non-germinated seeds; cited from earlier work
seed germination = settings: Norastehnia et al., Gen. Appl. Plant Physiology, 2007; cited from earlier work

With `CCCCCC1C(=O)CCC1CC(=O)OC` (centres unmarked) [MDHJ, methyl dihydrojasmonate] as the compound, how does the “Percent of Tomato Seeds Germinated, Day 5” value ([1]; 0.05 mM MDHJ) read?
The value was 87.5%.

What about the “Percent of Tomato Seeds Germinated, Day 7” value ([1]; 0.05 mM MDHJ) of the same compound?
Its value is 100%.

What about the “Seed germination percentage” value ([1]; 0.5 mM MDHJ) of the same compound?
The value was “enhanced”.

What about the “Percent of Tomato Seeds Germinated, Day 5” value ([1]; 0.50 mM MDHJ) of the same compound?
Its value is 100%.

And the “Percent of Tomato Seeds Germinated, Day 7” value ([1]; 0.50 mM MDHJ)?
Its value is 100%.

What about the “radicle length compared to untreated seeds” value ([1]; 0.5 mM MDHJ, by day 7, FIG. 4) of the same compound?
Its value is “increase in radicle length compared to untreated seeds”.

What about the “adverse effect on germination” value (Sugar snap pea seeds; MDHJ concentrations under 1.5 mM) of the same compound?
Its value is “not to adversely affect germination”.

What about the “germination benefit from MDHJ exposure” value (Sugar snap pea seeds; in vivo) of the same compound?
The value was “no germination benefit was seen”.

What about the “biotic attack” value (plants [2]) of the same compound?
Its value is “effective in reducing biotic attack and disease in plants; also recorded: surprisingly effective at preventing biotic attack”.

What about the “germination” value ([3]; 1.5 mM MDHJ) of the same compound?
Its value is “improved”.

What about the “Percent of Seeds Germinated at Day 6, Corn” value ([3]; 1.5 mM MDHJ) of the same compound?
The value was 54%.

What about the “Percent of Seeds Germinated at Day 6, Corn” value ([3]; 7.5 mM MDHJ) of the same compound?
Its value is 0.1%.

And the “germination” value ([4]; 1.5 mM MDHJ)?
Its value is “improved”.

What about the “Percent of Seeds Germinated at Day 6, Swiss Chard” value ([4]; 1.5 mM MDHJ) of the same compound?
The value was 77%.

What about the “Percent of Seeds Germinated at Day 6, Swiss Chard” value ([4]; 7.5 mM MDHJ) of the same compound?
Its value is 58%.

And the “Percent Seedling Emergence” value ([5]; 0.75 mM MDHJ)?
Its value is 63%.

What about the “germination compared to the untreated control” value ([5]; 0.75 mM-treated seed) of the same compound?
Its value is “increased germination”.

What about the “Percent Seedling Emergence” value ([5]; 7.50 mM MDHJ) of the same compound?
The value was 50%.

What about the “germination compared to the untreated control” value ([5]; 7.5 mM treated seed) of the same compound?
Its value is “no germination inhibition”.

What about the “growth (plant height, words)” value ([5]; FIG. 6, 24 days after planting, 0.75 mM or 7.5 mM) of the same compound?
The value was “did not inhibit growth”.

What about the “seed germination percentage compared to the untreated control” value ([6]; 0.05 mM MDHJ) of the same compound?
Its value is “increased seed germination percentage”.

What about the “Percent of Wheat Seeds Germinated at Day 7” value (“Percent … at Day 7” below) ([6]; 0.05 mM MDHJ) of the same compound?
Its value is 95%.

And the “coleoptile length” value ([6]; 0.05 mM MDHJ, FIG. 5)?
The value was “no decrease in coleoptile length”.

And the “Percent … at Day 7” value ([6]; 0.50 mM MDHJ)?
Its value is 53%.

What about the “germination and coleoptile growth” value ([6]; 0.5 mM and above, FIG. 5) of the same compound?
Its value is “inhibition of germination and coleoptile growth”.

What about the “Percent … at Day 7” value ([6]; 5.00 mM MDHJ) of the same compound?
Its value is 55%.

What about the “coleoptiles and radicles” value ([6]; 5.0 mM treatment) of the same compound?
The value was “too short to measure”.

And the “rate of seed germination in wheat” value ([6]; concentrations below 0.5 mM, germinating wheat in paper towel)?
Its value is “beneficial for improved rate of seed germination”.

What about the “Percent of Seeds Germinated at Day 6, Wheat” value ([7]; 1.5 mM MDHJ) of the same compound?
The value was 100%.

And the “General Observation, Wheat” value ([7]; 1.5 mM and 7.5 mM MDHJ)?
The value was “seedlings were stunted”.

And the “Percent of Seeds Germinated at Day 6, Wheat” value ([7]; 7.5 mM MDHJ)?
The value was 100%.

And the “chlorosis and necrosis of leaf senescence” value (plants [8])?
The value was “can reduce the chlorosis and necrosis of leaf senescence”.

And the “adverse effects on germination” value ([9]; 15 days after treatment, MDHJ at concentrations below 1.5 mM)?
Its value is “no adverse effects on germination; also recorded: not to adversely affect germination”.

What about the “germination benefit from MDHJ exposure” value ([9]; in vivo) of the same compound?
Its value is “no germination benefit was seen”.

What about the “flowering characteristics” value (plants [10]) of the same compound?
The value was “improves flowering characteristics”.

Which “pest resistance in the resulting plants” value [11] does the source give for `CC/C=C\CC1C(=O)CCC1CC(=O)O` (centres unmarked) [jasmonic acid, 2-(3-oxo-2-(pent-2-enyl)cyclopentyl)acetic acid] here?
The value was “increases pest resistance in the resulting plants up to 10 weeks after sowing”.

With `CC/C=C\CC1C(=O)CCC1CC(=O)OC` (centres unmarked) [methyl jasmonate] as the compound, how does the “seed germination” value (seed germination) read?
The value was “inhibits seed germination”.

And the “pest resistance in the resulting plants” value [11]?
Its value is “increases pest resistance in the resulting plants up to 10 weeks after sowing”.
